{
  "source": "patent US12653190B2",
  "about": "“Heteroaryl-triazole compounds as pesticides” (Bayer Aktiengesellschaft, priority 2020, dated 2026)",
  "format_in_all_cases": "in vivo",
  "key": {"[1]": {"test_system": "adult flies Musca domestica strain WHO-N", "experiment": "Musca domestica test (MUSCDO surface treatment & contact assay)", "conditions": "surface concentration 4 mg/m^2, 30 minutes exposure, 24 hours after contact, read-out: efficacy (mortality)", "how_it_was_run": "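Compound dissolved in acetone (2 mg/ml) with 2000 ppm rapeseed oil methyl ester and dried onto glazed tiles. Adult WHO-N strain flies were held on the treated surface for 30 minutes, with % mortality scored 24 hours after contact.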"}, "[2]": {"test_system": "adult brown dog ticks (Rhipicephalus sanguineus)", "experiment": "Rhipicephalus sanguineus in-vitro contact test, adult brown dog ticks", "conditions": "5 μg/cm^2 (=500 g/ha), after 48 hours, read-out: efficacy (ticks dead or moribund)", "protocol": "Rhipicephalus sanguineus—In-Vitro Contact Tests with Adult Brown Dog Ticks\n9 mg compound is solved in 1 mL acetone and diluted with acetone to the desired concentration. 250 μL of the test solution is filled in 25 mL glass test tubes and homogeneously distributed on the inner walls by rotation and tilting on a shaking device (2 h at 30 rpm). With a compound concentration of 900 ppm, an inner surface of 44.7 cm^2 and a homogeneous distribution, a dose of 5 μg/cm^2 is achieved.\nAfter the solvent has evaporated, each test tube is filled with 5-10 adult brown dog ticks (Rhipicephalus sanguineus), closed with a perforated lid and incubated in a lying position at room temperature and relative humidity. After 48 hours efficacy is determined. The ticks are patted on the ground of the tubes and are incubated on a heating plate at 45-50° C. for at most 5 minutes Immotile or uncoordinated moving ticks, which are not able to escape the heat by climbing upwards, are marked as dead or moribund.\nAn efficacy of 100% means all ticks are dead or moribund; 0% means no ticks are dead or moribund."}, "[3]": {"test_system": "larvae of the southern green stink bug (Nezara viridula)", "experiment": "Nezara viridula spray test", "conditions": "96 h, 100 g/ha, after 4 days, barley plants", "how_it_was_run": "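Compound in acetone/DMF was diluted in water with 1000 ppm alkylarylpolyglycol ether emulsifier. Barley plants were sprayed with it, then infested with Nezara viridula larvae. Mortality % was scored after 4 days (100% = all killed).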"}},
  "data": [
    {"smiles": "C[C@H](NC(=O)c1cc(Cl)cc(OS(C)(=O)=O)c1)c1ncnn1-c1ccc(C#N)cn1", "note": "[Example I-46]", "values": [
      {"measurement": "mortality at 4 mg/m2", "setting": "[1]", "value": "80 to 100", "unit": "%"},
      {"measurement": "pest or weed control at 5 µg/cm2, 5 µg/cm2", "setting": "[2]", "value": 100, "unit": "%"},
      {"measurement": "mortality at 100 g/ha", "setting": "[3]", "value": 100, "unit": "%"}
    ]}
  ]
}
